Source: US8895501B2, “Eye-drop vaccine containing copolymer 1 for therapeutic immunization” (Yeda Research and Development Co. Ltd., priority 2003, dated 2014)
“And” between values parts separate entries of the source, which are not always exact repeats. Identical values can stand only once.

Columns and labels:
[1] = tested on: retinal ganglion cells (RGCs); assay: Chronic high IOP model (laser-induced), IOP-induced RGC death; type: in vivo, rat; conditions: for % of death of RGCs: non-thymectomized rats; for % of death of RGCs / loss of RGCs (% death): treatment started immediately after IOP elevation (Cop-1 single injection, brimonidine daily), 3 weeks; for loss of RGCs (% death): thymectomized (T cell-deprived) rats
From the text: (§1) Inbred adult male Lewis and Sprague-Dawley (SPD) rats (8 weeks; average weight 300 g) were supplied by the Animal Breeding Center at The Weizmann Institute of Science (Rehovot, Israel). The rats were maintained in a light- and temperature-controlled room and were matched for age and weight before each experiment. All animals were handled according to the regulations formulated by IACUC ([…]).
Blockage of aqueous outflow causes an increase in IOP, which results in RGC death (Bakalash et al., 2002; Schori et al., 2001; Jia et al., 2000a; Levkovitch-Verbin et al., 2002). […] Rats were deeply anesthetized by intramuscular injection of ketamine hydrochloride (50 mg/kg) and xylazine hydrochloride (0.5 mg/kg). A slit lamp emitting blue-green argon laser irradiation (Haag-Streit, Köniz, Switzerland) was used to treat the right eye of the anesthetized rat with 80 to 120 applications directed toward three of the four episcleral veins and toward 270° of the limbal plexus. The laser beam was applied with a power of 1 W for 0.2 seconds, producing a spot size of 100 μm at the episcleral veins and 50 μm at the limbal plexus. At a second laser session 1 week later, the same parameters were used, except that the spot size was 100 μm in all applications. Irradiation was directed toward all four episcleral veins and 360° of the limbal plexus (Schori et al. 2001).
(§2) Eyes from untreated rats were used as a control. RGCs were counted by an observer who was blinded to the identity of the retinas.
Rats with either laser-induced increase in IOP or acute IOP elevation were immunized with Cop 1 (100 μg) (Teva Pharmaceutical Industries Ltd., Petach Tikva, Israel) emulsified in 2.5 mg/ml of CFA in a total volume of 100 μl (Kipnis et al., 2000). Each animal was vaccinated subcutaneously at the root of the tail.
(§3) Cop-1 in PBS was given at different concentrations and at different time points after the primary insult subcutaneously. Topical administration of Cop-1 was done after immersing the substance in PBS at a concentration of 20 mg/ml. Since each drop was of 50 μl, we administered 1 drop every 5 minutes for a total of 5 drops in 25 minutes.

[2] = tested on: retinal ganglion cells (RGCs); assay: Acute transient high IOP model, IOP-induced RGC death; type: in vivo, Lewis rats
From the text: as §1
The infusion bag was placed 1 meter above the rat's head, creating a closed loop circulation. High IOP was induced for exactly 1 hour after which the needle was removed from the eye and the hole was self-sealed.
as §2, §3

Compound	% of death of RGCs [1]	loss of RGCs (% death) [1]	% of RGC death ([1]; Cop-1 emulsified in CFA, day of first laser plus 2, 6 and 9 weeks later, retinas excised 12 weeks after first laser, n=5)	% of RGC death ([1]; Cop-1 emulsified in CFA, immunized on day of first laser, retinas excised 3 weeks later, n=7)	% of RGC death ([1]; adjuvant-free 500 μg, daily injections for 7 days starting on day 0, retinas excised 3 weeks later)	% of RGC death ([1]; adjuvant-free 500 μg, single injection on day 7 after first laser, retinas excised 3 weeks later)	% of RGC death ([1]; adjuvant-free, subcutaneous, 100 μg on first day of laser treatment)	% of RGC death ([1]; adjuvant-free, subcutaneous, 250 μg on first day of laser treatment)	% of RGC death ([1]; adjuvant-free, subcutaneous, 500 μg on first day of laser treatment)	RGC protection 6 weeks after IOP was first elevated, comparison of regimens ([1]; adjuvant-free, two injections (day 0 and 3 weeks later) versus a single injection after 3 weeks)	number of RGCs ([1]; eye drops without adjuvant, 5 mg Cop-1, assessed 3 weeks after pressure elevation, p<10^-5)	Average death rate of RGCs ([2]; 5 mg Cop-1 over 25 minutes immediately after 1 hour of elevated IOP, two weeks after IOP elevation, n=4)	RGC protection, eye drops applied to the eye contralateral to the elevated pressure ([2]; Cop-1 eye drops to contralateral side versus ipsilateral)	loss of RGCs ([2]; Cop-1 without adjuvant, 2 weeks after transient IOP elevation (1 hour))
Brc1c(NC2=NCCN2)ccc2nccnc12 [brimonidine]	34.5±3.51%	38±7%	–	–	–	–	–	–	–	–	–	–	–	–
glatiramer acetate [Cop-1]	23.5±5.7%	55±5.2% and 55%	33.7±1.4%	12.6±5%	41.41±6%	19.1±14.7%	44±6%	50.5±8%	26.6±10%	more effective than a single injection after 3 weeks	150 RGCs	31.12%±3.22	same effect as when given ipsilaterally	20%
